Activity calls are given as the source filed them.
Experiments:
[1] = molecular target: T1, Probable nicotinate-nucleotide adenylyltransferase (Staphylococcus aureus (strain N315), UniProt P65502); format: functional, Staphylococcus aureus subsp. aureus N315;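 for IC50 Mean: confirmatory dose-response retesting of NadD inhibitor hits first found in an ultra-high-throughput screen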
[2] = molecular target: T1, Probable nicotinate-nucleotide adenylyltransferase; format: functional, Staphylococcus aureus subsp. aureus N315; conditions: read-out: IC50_Mean
[3] = ADAM10 protease inhibitors, dose response, selectivity assay for ADAM17 exosite inhibitor project, biochemical, FRET peptide substrate, recombinant human ADAM10 (AID 743259);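 note: ADAM10 enzyme cleaving a FRET peptide substrate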
[4] = molecular target: Disintegrin and metalloproteinase domain-containing protein 17 (Homo sapiens, UniProt P78536); assay: exosite inhibitors of ADAM17, dose response, biochemical (AID 743260)
cells = format: functional, cell-based; conditions: HEK-CNG
[5] = HepG2 cell cytotoxicity, dose response, cytotoxicity control for Shn3 inhibitor project, CellTiter-Glo, cherry-picked (AID 624134); format: functional, cell-based
[6] = Shn3 3'UTR reporter inhibitors, dose response, cell-based, Clone20 osteoblasts, firefly luciferase, cherry-picked (AID 624132); format: functional;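 note: firefly luciferase luminescence from reporter carrying the Shn3 3'UTR in osteoblasts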
Galanin receptor type 3 = Galanin receptor type 3 (Homo sapiens, UniProt O60755); assay: Fluorescence-based cell-based primary high throughput dose response assay to identify antagonists of the Galanin Receptor 3 (GalR3).; format: functional
[7] = control 3'UTR Renilla luciferase suppression, dose response, counter-screen for Shn3 inhibitor project, cell-based, Clone20-Shn3RL, cherry-picked (AID 624133); format: functional
[8] = P. falciparum Dd2 growth inhibitors, dose response, SYBR Green, cherry-picked samples (AID 1159567); format: functional, cell-based
[9] = HepG2 cell cytotoxicity, dose response, cytotoxicity control, cherry-picked samples (AID 1159577); format: functional, cell-based
[10] = NIH:OVCAR-3 ovarian cancer cell cytotoxicity, dose response, PAX8 inhibitor project, plate reader, dry powder samples (AID 743044); format: functional, cell-based
[11] = cytotoxicity in OVCAR8 ovarian cancer cells, dose response, PAX8 project, cell-based, plate reader, dry powder samples (AID 743197); format: functional; conditions: OVCAR-8
Paired box protein Pax-8 = Paired box protein Pax-8 (Homo sapiens, UniProt Q06710); assay: inhibitors of PAX8-driven TPO luciferase reporter, dose response, RMG-I cells, cherry-pick (AID 687027); format: functional, cell-based;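 note: luciferase reporter driven by Pax8 target thyroperoxidase promoter measured by SteadyGlo luminescence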
[12] = molecular target: T2, Sentrin-specific protease 8 (Homo sapiens, UniProt Q96LD8); format: functional
T2 sequence (Q96LD8 whole entry): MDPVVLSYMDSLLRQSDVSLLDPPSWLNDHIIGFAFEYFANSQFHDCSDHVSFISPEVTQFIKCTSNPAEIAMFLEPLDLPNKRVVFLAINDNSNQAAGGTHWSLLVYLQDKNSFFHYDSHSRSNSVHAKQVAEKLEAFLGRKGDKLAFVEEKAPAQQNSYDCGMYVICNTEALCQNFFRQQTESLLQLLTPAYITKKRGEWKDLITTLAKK

[13] = molecular target: T2, Sentrin-specific protease 8; format: functional; remark: listed apart in the source
[14] = Late stage assay provider results from the probe development effort to identify inhibitors of the Plasmodium falciparum M17 Leucine Aminopeptidase (M17LAP): radiolabel-based cell-based dose response assay to identify compounds that inhibit P. falciparum growth in RBCs Set 2.; format: functional
[15] = T. cruzi growth inhibition in host cells, dose response, cell-based, plate reader, dry powder, set 2 (AID 652275); format: functional
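Throughout, for EC50: target is galanin receptor GalR3 read with a cAMP biosensor in HEK293 cells.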

T1 sequence (P65502 whole entry): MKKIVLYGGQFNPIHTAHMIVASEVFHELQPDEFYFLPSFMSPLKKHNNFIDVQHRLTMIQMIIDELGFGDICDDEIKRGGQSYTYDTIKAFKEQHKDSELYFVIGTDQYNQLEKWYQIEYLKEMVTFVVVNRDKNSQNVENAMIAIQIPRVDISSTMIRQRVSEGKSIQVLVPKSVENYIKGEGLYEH
Paired box protein Pax-8, sequence (Q06710 whole entry): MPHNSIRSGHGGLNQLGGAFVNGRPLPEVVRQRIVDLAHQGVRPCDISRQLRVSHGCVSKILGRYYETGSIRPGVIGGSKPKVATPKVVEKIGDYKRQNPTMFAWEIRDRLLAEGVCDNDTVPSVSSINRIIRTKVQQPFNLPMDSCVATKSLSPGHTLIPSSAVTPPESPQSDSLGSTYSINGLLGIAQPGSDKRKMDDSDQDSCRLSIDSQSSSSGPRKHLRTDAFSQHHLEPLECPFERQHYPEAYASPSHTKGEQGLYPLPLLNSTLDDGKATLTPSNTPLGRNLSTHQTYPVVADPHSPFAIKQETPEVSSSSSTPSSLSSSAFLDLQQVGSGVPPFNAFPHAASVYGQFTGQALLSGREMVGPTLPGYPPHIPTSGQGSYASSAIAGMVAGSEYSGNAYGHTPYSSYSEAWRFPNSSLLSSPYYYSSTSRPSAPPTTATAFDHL
Galanin receptor type 3, sequence (O60755 whole entry): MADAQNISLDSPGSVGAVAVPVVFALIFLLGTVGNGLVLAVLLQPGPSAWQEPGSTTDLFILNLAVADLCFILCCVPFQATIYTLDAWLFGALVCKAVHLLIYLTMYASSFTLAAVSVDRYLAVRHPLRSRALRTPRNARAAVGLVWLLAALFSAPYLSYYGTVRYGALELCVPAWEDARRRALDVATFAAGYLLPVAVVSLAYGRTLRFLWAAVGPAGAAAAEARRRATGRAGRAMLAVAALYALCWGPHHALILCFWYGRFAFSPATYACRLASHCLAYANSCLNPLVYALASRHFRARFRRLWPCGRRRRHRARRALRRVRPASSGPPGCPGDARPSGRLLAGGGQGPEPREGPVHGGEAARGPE
Disintegrin and metalloproteinase domain-containing protein 17, sequence (P78536 whole entry, the tested form may be a part): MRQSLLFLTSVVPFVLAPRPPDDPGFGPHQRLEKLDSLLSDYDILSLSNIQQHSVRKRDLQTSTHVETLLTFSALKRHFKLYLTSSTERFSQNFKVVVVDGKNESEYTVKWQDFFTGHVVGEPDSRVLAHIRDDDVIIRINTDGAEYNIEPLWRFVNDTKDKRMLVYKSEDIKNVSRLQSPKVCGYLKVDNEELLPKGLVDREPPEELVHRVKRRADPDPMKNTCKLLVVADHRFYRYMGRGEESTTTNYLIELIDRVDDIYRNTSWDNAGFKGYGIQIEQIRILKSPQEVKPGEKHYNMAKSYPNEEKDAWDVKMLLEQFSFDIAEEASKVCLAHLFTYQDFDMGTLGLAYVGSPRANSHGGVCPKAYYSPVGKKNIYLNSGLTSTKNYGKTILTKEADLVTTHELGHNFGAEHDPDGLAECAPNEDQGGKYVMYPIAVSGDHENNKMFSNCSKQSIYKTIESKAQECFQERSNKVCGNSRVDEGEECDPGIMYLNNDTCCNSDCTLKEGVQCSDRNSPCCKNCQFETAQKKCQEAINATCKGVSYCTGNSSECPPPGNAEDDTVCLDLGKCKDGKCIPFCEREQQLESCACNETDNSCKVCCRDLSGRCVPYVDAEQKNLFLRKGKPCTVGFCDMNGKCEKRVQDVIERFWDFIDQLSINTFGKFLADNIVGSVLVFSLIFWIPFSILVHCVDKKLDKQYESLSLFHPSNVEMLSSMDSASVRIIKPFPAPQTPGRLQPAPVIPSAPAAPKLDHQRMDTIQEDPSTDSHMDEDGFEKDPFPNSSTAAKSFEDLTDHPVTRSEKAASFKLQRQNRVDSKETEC

For `CC1(OC(=O)C2CCCC2)C(=O)C=C2C=C(c3ccc(C#N)cc3)OC=C2C1=O` (stereo not drawn), the IC50 [1] was 6.57 µM (active) and the IC50 [2] was 15.7 µM (active).

With `COc1cccc(CN2C(=O)[C@@H]3Cc4c([nH]c5ccccc45)C(C)(C)N3C2=O)c1` the IC50 [3] was > 69.4 µM (inactive) and the IC50 [4] was > 69.4 µM (inactive).

In the case of `COc1ccc(-c2coc3c(C(=O)NCc4ccc(OC)c(OC)c4)cccc23)c(C)c1`, the EC50 (cells) is reported as > 29.9 µM (inactive), the AC50 [5] is reported as 1.77 µM (active) and the AC50 [6] is reported as 0.722 µM (active). For the same compound, the IC50 (Galanin receptor type 3) was 0.358 µM (active) and the AC50 [7] was 1.4 µM (active).

With `C[C@@H]1CN([C@@H](C)CO)C(=O)c2cccc(NC(=O)Nc3cccc4ccccc34)c2O[C@@H]1CN(C)Cc1ccc(C(=O)Nc2ccccc2N)cc1` the AC50 [8] was < 0.3 µM (active) and the AC50 [9] was 12.1 µM (active).

For `Cc1ccc(S(=O)(=O)Nc2ccc3c(c2)C(=O)N([C@H](C)CO)C[C@H](C)[C@@H](CN(C)S(=O)(=O)c2cccs2)OCCCC[C@H](C)O3)cc1`, the AC50 [10] was 20.5 µM (active), the AC50 [11] was > 70 µM (inactive) and the AC50 (Paired box protein Pax-8) was 4.23 µM (active).

In the case of `COCCNC(=O)C[C@@H]1C[C@H]2c3cc(NC(=O)Nc4ccc(C(F)(F)F)cc4)ccc3O[C@H]2[C@H](CO)O1`, the AC50 [11] is reported as > 70 µM (inactive) and the AC50 (Paired box protein Pax-8) is reported as 26.6 µM (active).

With `Cc1[nH]n(-c2ccccc2)c(=O)c1S(=O)(=O)c1ccccc1` the IC50 [12] was 12.8 µM (active) and the IC50 [13] was 4.99 µM (active).

For `CCCCOc1ccc(CNc2c(N(C)O)c(=O)c2=O)cc1`, the IC50 [14] was 19 µM (inactive).

In the case of `CCOc1ccc(CC(=O)NO)cc1`, the IC50 [14] is reported as 7.2 µM (active).

With `CC(C)N1C[C@H](C)[C@@H](CN(C)Cc2ccc(Cl)c(Cl)c2)Oc2c(cccc2-c2cn(-c3ccncc3)nn2)C1=O` the AC50 [15] was 0.00149 µM (active).

For `C[C@H](CO)N1C[C@H](C)[C@H](CN(C)Cc2ccc(Oc3ccccc3)cc2)Oc2ccc(NC(=O)Nc3ccc(C(F)(F)F)cc3)cc2C1=O`, the AC50 [8] was 9.62 µM (active) and the AC50 [9] was 7.87 µM (active).
